Laboratory results reported in patent US20050124683A1, “HIV protease inhibitors, compositions containing the same, their pharmaceutical uses and materials for their synthesis” (priority 2003, published 2005).
Where two headings read alike, the source gives them in different places.

How the values were obtained:
HIV-1 protease = molecular target: T1, HIV-1 protease (Human immunodeficiency virus type 1 group M subtype B, UniProt P04585, Q495S); assay: HIV-1 Protease RET assay (Ki, resonance energy transfer); format: biochemical; conditions: Q7S mutant HIV-1 protease
T1 construct: made in house
Experimental: Ki's for the inhibitors of HIV-1 protease were determined using a resonance energy transfer (RET) assay. […] This enzyme is first partially purified as inclusion bodies from cell lysate. It is then solublized in 8M urea and passed through a Q-Sepharose column (Pharmacia) for further purification. To refold this protein, samples containing Q7S is dialyzed into 50 mM sodium phosphate pH 7.0, 50 mM NaCl, 10 mM DTT, and 10% glycerol.
The commercially available peptide substrate (Molecular Probes Cat. # H-2930) RE(EDANS)SQNYPIVQK(DABCYL)R is used to assess activity and Ki's. This peptide is cleaved quantitatively by HIV-1 Pr at the Tyr-Pro bond. The EDANS fluorophore absorbs at 340 nm and emits at 490 nm. The reaction is carried out in a 96 well plate in a total volume of 100 µL and is run for 12 minutes at 37C under steady-state conditions with 5 µM substrate and 2 nM active dimer enzyme concentration. The literature value Km for this substrate and enzyme is 103+/−8 μM (See Matayoshi, et al., “Novel Fluorogenic Substrates for Assaying Retroviral Proteases by Resonance Energy Transfer,” Science 247, 954 (1990)). The buffer for this reaction is 0.1M sodium acetate pH 4.8, 1M NaCl, 1 mM EDTA, 5 mM dithiothreitol, 10% dimethyl sulfoxide and 1 mg/ml bovine serum albumin. Inhibition curves are fit using the Morrison tight binding equation.

HIV-1 = assay: Antiviral EC50 in HIV-infected T-cell lines (CPE inhibition / susceptibility assays); format: cell-based
Experimental: T-cell lines, CEM-SS, and MT-2, and viruses HIV-1 RF and HIV-1 NL4-3 (pNL4-3) were obtained from the National Institutes of Health (AIDS Research and Reference Reagent Program, Bethesda, MD).
The ability of compounds to protect cells against HIV infection was measured by the […] dye reduction method, essentially as described (See Pauwels, R. Balzarini, J. Baba, M. Snoeck, R. Schols, D. Herdewijn, P. Desmyter, J. and De Clercq, E. 1988, “Rapid and automated tetrazolium-based colorimetric assay for the detection of anti-HIV compounds,”. J Virol. Methods., 20: 309-321 and Weislow, O. S. Kiser, R. Fine, D. L. Bader, J. Shoemaker, R. H. and Boyd, M. R. 1989. “New soluble-formazan assay for HIV-1 cytopathic effects: application to high-flux screening of synthetic and natural products for AIDS-antiviral activity”. J. Natl. Cancer Inst. 81:577-586). Subject cells were infected with test virus at an moi of 0.025 to 0.819 or mock infected with medium only and added at 2×10^4 cells per well into 96 well plates containing half-log dilutions of test compounds. Six days later, 50 μl of XTT (1 mg/ml XTT tetrazolium, […] phenazine methosulfate) was added to the wells and the plate was reincubated for four hours. Viability, as determined by the amount of XTT formazan produced, was quantified spectrophotometrically by absorbance at 450 nm. Data from CPE assays were expressed as the percent of formazan produced in compound-treated cells compared to formazan produced in wells of uninfected, compound-free cells. The fifty percent effective concentration (EC50) was calculated as the concentration of compound that effected an increase in the percentage of formazan production in infected, compound-treated cells to 50% of that produced by uninfected, compound-free cells. The 50% cytotoxicity concentration (CC50) was calculated as the concentration of compound that decreased the percentage of formazan produced in uninfected, compound-treated cells to 50% of that produced in uninfected, compound-free cells. The therapeutic index was calculated by dividing the cytotoxicity (CC50) by the antiviral activity (EC50).
Compounds were tested in phenotypic susceptibility assays at Virologic, Inc., (See Petropoulos C. J., Parkin N. T., Limoli K. L., Lie Y. S., Wrin T., Huang W., Tian H., Smith D., Winslow G. A., Capon D J, Whitcomb J M. 2000, “A novel phenotypic drug susceptibility assay for human immunodeficiency virus type 1,” Antimicrob Agents Chemother 44(4):920-928) or using the assay described here. MT-2 cells were infected with either HIV-1 NL4-3 or HIV-1 NL4-3(I84V/L90M) and incubated in the presence of serial 0.5 log dilutions of test compounds. Three days later, culture supernatants were collected and virus production, as determined by p24 ELISA, was assayed. Percent inhibition was calculated as p24 concentration in compound-treated samples as compared to infected, compound-free controls. Inhibition of viral replication is determined by measuring reduction in HIV p24 present in the culture supernatant, using a Beckman-Coulter p24 HIV-1 Ag EIA kit and following the supplied protocol. Absorbance is read on a MRX microplate reader (Dynex Technologies). The EC50 was calculated as the concentration of compound that effected a decrease in the p24 production by infected, compound-treated cells to 50% of that produced by infected, compound-free cells.

[1] = Human immunodeficiency virus 1, T-cell, read-out: EC50 (wt) (nm), wt virus
[2] = Human immunodeficiency virus 1, T-cell, read-out: Ave. EC50, average, unit inferred

SMILES	Ki (HIV-1 protease; read-out: Ki (nm)) [µM]	EC50 (HIV-1; [1]) [µM]	Ki (HIV-1 protease; average, read-out: Ave. Ki) [µM]	EC50 (HIV-1; [2]) [µM]	EC50 (HIV-1; read-out: EC50 (wt) (nm), wt virus) [µM]
Cc1cnccc1CNC(=O)C1N(C(=O)[C@@H](O)[C@H](Cc2ccccc2)NC(=O)c2cccc(O)c2C)CC(F)(F)C1(C)C (stereo partly shown)	< 0.0001	0.008			
Cc1c(O)cccc1C(=O)N[C@@H](Cc1ccccc1)[C@H](O)C(=O)N1COC(C)(C)[C@H]1C(=O)NC1CCc2ccccc21 (stereo partly shown)	< 0.0001	0.033			
Cc1cc(O)c(C)c(C(=O)N[C@@H](Cc2ccccc2)[C@H](O)C(=O)N2COC(C)(C)[C@H]2C(=O)NC2CCc3ccccc32)c1 (stereo partly shown)	< 0.0001	0.061			
CCCCNC(=O)[C@H]1N(C(=O)[C@@H](O)[C@H](Cc2ccccc2)NC(=O)c2cc(C)cc(O)c2C)CC(F)(F)C1(C)C	< 0.0001	0.023			
Cc1cc(O)c(C)c(C(=O)N[C@@H](Cc2ccccc2)[C@H](O)C(=O)N2CC(F)(F)C(C)(C)[C@H]2C(=O)NCc2ccncc2C)c1	< 0.0001	0.034			
Cc1cc(O)c(C)c(C(=O)N[C@@H](Cc2ccccc2)[C@H](O)C(=O)N2CC(F)(F)C(C)(C)[C@H]2C(=O)NCc2ccccn2)c1	< 0.0001	0.061			
CC[C@H](C)CNC(=O)[C@H]1N(C(=O)[C@@H](O)[C@H](Cc2ccccc2)NC(=O)c2cc(C)cc(O)c2C)CC(F)(F)C1(C)C	< 0.0001	0.0075			
C=CCNC(=O)C1N(C(=O)[C@@H](O)[C@H](Cc2cccc(F)c2)NC(=O)c2cccc(O)c2C)CC(F)(F)C1(C)C (stereo partly drawn) [Example D10, (R)-3-((2S,3R)-4,4-Difluoro-1-[4-(3-fluoro-phenyl)-2-hydroxy-3-(3-hydroxy-2-methyl-benzoylamino)-butyryl])-3,3-dimethyl-pyrrolidine-2-carboxylic acid allylamide]			< 0.0001	0.016	
Cc1c(O)cccc1C(=O)N[C@@H](Cc1cccc(F)c1)[C@H](O)C(=O)N1CC(F)(F)C(C)(C)[C@H]1C(=O)NCC(C)C [Example D11, (S)-4,4-Difluoro-1-[(2S,3S)-4-(3-fluoro-phenyl)-2-hydroxy-3-(3-hydroxy-2-methyl-benzoylamino)-butyryl]-3,3-dimethyl-pyrrolidine-2-carboxylic acid isobutyl-amide]			< 0.0001	0.013	
C=CCNC(=O)[C@H]1N(C(=O)[C@@H](O)[C@H](Cc2ccccc2)NC(=O)c2cc(C)cc(O)c2C)CSC1(C)C [Example D12, (R)-3-[(2S,3S)-2-Hydroxy-3-(3-hydroxy-2,5-dimethyl-benzoylamino)-4-phenyl-butyryl]-5,5-dimethyl-thiazolidine-4-carboxylic acid allylamide]			0.0007	0.016	
C=CCNC(=O)[C@H]1N(C(=O)[C@@H](O)[C@H](Cc2ccccc2)NC(=O)c2cc(C)cc(O)c2C)CC(F)(F)C1(C)C [Example D13, (S)-4,4-Difluoro-1-[(2S,3S)-2-hydroxy-3-(3-hydroxy-2,5-dimethyl-benzoylamino)-4-phenyl-butyryl]-3,3-dimethyl-pyrrolidine-2-carboxylic acid allylamide]			< 0.0001	0.017	
Cc1cc(O)c(C)c(C(=O)N[C@@H](Cc2ccccc2)[C@H](O)C(=O)N2CC(F)(F)C(C)(C)[C@H]2C(=O)NCC(F)(F)F)c1 [Example D16, (S)-4,4-Difluoro-1-[(2S,3S)-2-hydroxy-3-(3-hydroxy-2,5-dimethyl-benzoylamino)-4-phenyl-butyryl]-3,3-dimethyl-pyrrolidine-2-carboxylic acid (2,2,2-trifluoro-ethyl)-amide]			< 0.0001	0.018	
CCNC(=O)[C@H]1N(C(=O)[C@@H](O)[C@H](Cc2ccccc2)NC(=O)c2cc(C)cc(O)c2C)CC(F)(F)C1(C)C [Example D17, (S)-4,4-Difluoro-1-[(2S,3S)-2-hydroxy-3-(3-hydroxy-2,5-dimethyl-benzoylamino)-4-phenyl-butyryl]-3,3-dimethyl-pyrrolidine-2-carboxylic acid ethylamide]			< 0.0001	0.066	
CC[C@H](C)CNC(=O)[C@H]1N(C(=O)[C@@H](O)[C@H](Cc2ccccc2)NC(=O)c2cccc(O)c2C)CC(F)(F)C1(C)C [Example D18, (S)-4,4-Difluoro-1-[(2S,3S)-2-hydroxy-3-(3-hydroxy-2-methyl-benzoylamino)-4-phenyl-butyryl]-3,3-dimethyl-pyrrolidine-2-carboxylic acid ((2S)-2-methyl-butyl)-amide]			< 0.0001	0.01	
C=CCNC(=O)C1N(C(=O)[C@@H](O)[C@H](Cc2cccc(F)c2)NC(=O)c2cccc(O)c2C)CC(F)(F)C1(C)C (stereo partly shown) [drawing 101]	< 0.0001	0.016			
Cc1cc(O)c(C)c(C(=O)N[C@@H](Cc2ccccc2)[C@H](O)C(=O)N2CC(F)(F)C(C)(C)[C@H]2C(=O)NCC(F)(F)F)c1 [drawing 119]	< 0.0001	0.018			
Cc1c(O)cccc1C(=O)N[C@@H](Cc1cccc(F)c1)[C@H](O)C(=O)N1CC(F)(F)C(C)(C)[C@H]1C(=O)NCC(C)(C)C [drawing 136]	< 0.0001	0.013			
Cc1c(O)cccc1C(=O)N[C@@H](Cc1cccc(F)c1)[C@H](O)C(=O)N1CC(F)(F)C(C)(C)[C@H]1C(=O)NCC(C)(C)C [drawing 137]	< 0.0001				0.0088
CCNC(=O)[C@H]1N(C(=O)[C@@H](O)[C@H](Cc2ccccc2)NC(=O)c2cc(C)cc(O)c2C)CC(F)(F)C1(C)C [drawing 141]	< 0.0001	0.037			
CC[C@H](C)CNC(=O)[C@H]1N(C(=O)[C@@H](O)[C@H](Cc2ccccc2)NC(=O)c2cccc(O)c2C)CC(F)(F)C1(C)C [drawing 143]	< 0.0001	0.011			
